Data from paper PMC7470104, “Discovery of 3,6-disubstituted pyridazines as a novel class of anticancer agents targeting cyclin-dependent kinase 2: synthesis, biological evaluation and in silico insights” (Journal of Enzyme Inhibition and Medicinal Chemistry, 2020).
Read-outs that look alike come from different tables or passages of the source. Each block holds one molecule with its values, some of them ahead of it.

Legend:
T-47D cells [1] = experiment: SRB anti-proliferative assay, T-47D; format: cell-based; conditions: Homo sapiens, T47D, 48 h, read-out: IC50 T-47D
Excerpt: (§1) MDA-MB-231 cell line is classified as a triple-negative/basal-like cell line, which is hormone (estrogen and progesterone)-receptor negative and HER2 negative, whereas T-47D is considered as hormone-receptor positive and HER2 negative breast cancer cell line.
(§2) 2. Anti-proliferative activities
(§3) The three examined human cancer cell lines; T-47D (breast cancer), MDA-MB-231 (breast carcinoma) and SKOV-3 (ovarian cancer), as well as the non-tumorigenic human breast cell line (MCF-10A) have been obtained from American Type Culture Collection (ATCC). The cells were maintained in Dulbecco's modified Eagle's medium (DMEM) supplemented with 10% heat inactivated fetal calf serum (GIBCO), penicillin (100 U/ml) and streptomycin (100 µg/ml) at 37 °C in humidified atmosphere containing 5% CO2. Cells at a concentration of 0.50 x 106 were grown in a 25 cm2 flask in 5 ml of culture medium.
(§4) The anti-proliferative activity of the tested pyridazines 11a-r was measured in vitro using the Sulfo-Rhodamine-B stain (SRB) assay. Briefly, Cells were inoculated in 96-well microtiter plate (5X104 cells/ well) for 24 h before treatment with the tested pyridazines to allow attachment of cell to the wall of the plate. Tested pyridazines were dissolved in DMSO at 1 mg/ml immediately before use and diluted to the appropriate volume just before addition to the cell culture. Different concentrations of tested pyridazines and staurosporine were added to the cells (three wells were prepared for each individual dose). Cells were incubated with the pyridazines for 48 h at 37°C and in atmosphere of 5% CO2. After 48 h cells were fixed, washed, and stained for 30 min with 0.4% (w/v) SRB dissolved in 1% acetic acid. Unbound dye was removed by four washes with 1% acetic acid, and attached stain was recovered with Tris-EDTA buffer. Color intensity was measured in an ELISA reader. The relation between percent of surviving fraction and drug concentration is plotted to get the survival curve for each cell line. The concentration required for 50% inhibition of cell viability (IC50) was calculated. […]

CDK2/CyclinA2 = CDK2/CyclinA2 (Homo sapiens, UniProt P24941); experiment: In vitro CDK2 kinase assay (CDK2/CyclinA2 Kinase Enzyme System)
Excerpt: CDK Kinase Inhibitory Activity

MDA-MB-231 cells [2] = experiment: SRB anti-proliferative assay, MDA-MB-231; format: cell-based; conditions: Homo sapiens, read-out: IC50 MDA-MB-231
Excerpt: as §1, §2, §3, §4

T-47D cells [3] = experiment: Annexin V-FITC/PI apoptosis assay, T-47D; format: cell-based, human; conditions: treated at IC50, 48 h; for Annexin V+ cells, late apoptotic phase (upper right quadrant): control 0.19%; for Annexin V+ cells, early apoptotic phase (lower right quadrant): control […]
Experimental: (§5) Both T-47D and MDA-MB-231 cells were treated with pyridazines 11l and 11m at their IC50s for 48 h. The obtained results have been depicted in Figures 4–6.
(§6) 4. Annexin V-FITC Apoptosis Assay
(§7) Phosphatidylserine externalization was assayed using Annexin V-FITC/PI apoptosis detection kit (BD Biosciences, USA) according to the manufacturer’s instructions. Breast cancer T-47D and MDA-MB-231 cells were cultured to a monolayer then treated with pyridazines 11l and 11m at their IC50 concentration. Briefly, cells were then harvested via trypsinization, and rinsed twice in PBS followed by binding buffer. Moreover, cells were re-suspended in 100 μL of binding buffer with the addition of 1 μL of FITC-Annexin V followed by an incubation period of 30 min at 4 °C. Cells were then rinsed in binding buffer and resuspended in 150 μL of binding buffer with the addition of 1 μL of DAPI (1 μg/μL in PBS). Cells were then analyzed using the flow cytometer BD FACS Canto II and the results were interpreted with FlowJo7.6.4 software (Tree Star, Ashland, OR, USA). […]
(§8) Data are presented as means ± S.D. Individual groups were compared using the two-tailed independent Student’s t-test. Multiple group comparisons were carried out using one-way analysis of variance (ANOVA) followed by the Tukey–Kramer test for post-hoc analysis. Statistical significance was accepted at a level of p < 0.05. All statistical analyses were performed using GraphPad InStat software, version 3.05 (GraphPad Software, Inc., La Jolla, CA, USA). Graphs were sketched using GraphPad Prism software, version 5.00 (GraphPad Software, Inc., La Jolla, CA, USA).

T-47D cells [4] = experiment: Cell cycle analysis by flow cytometry, T-47D; format: cell-based, human; conditions: treated at IC50, 24 h, vs untreated control
Excerpt: (§9) In this study, the efficient anti-proliferative activities of target pyridazines 11a-r towards breast cancer cell lines promoted us to explore and get insights into the plausible cellular mechanisms for these small molecules. To this end, we decided to determine if the target pyridazines exerted their cytotoxic activity through alteration in cell cycle progression and/or induction of apoptosis in both breast cancer T-47D and MDA-MB-231 cells. As a reliable tool, the flow cytometric analysis was utilised to inspect the cell cycle distribution after treatment of T-47D and MDA-MB-231 cells with IC50s of pyridazines 11l and 11m; […]
as §2
as §3, with “medium. […]” for “medium.”
Tested pyridazines were dissolved in […]
The relation between percent of surviving fraction and drug concentration is plotted to get the survival curve for each cell line. The concentration required for 50% inhibition of cell viability (IC50) was calculated.
Breast cancer T-47D and MDA-MB-231 cells were treated with pyridazines 11l and 11m for 24 h (at their IC50 concentration), and then cells were washed twice with ice-cold phosphate buffered saline (PBS). Subsequently, the treated cells were collected by centrifugation, fixed in ice-cold 70% (v/v) ethanol, washed with PBS, re-suspended with 100 μg/mL RNase, stained with 40 μg/mL PI, and analyzed by flow cytometry using FACS Calibur (Becton Dickinson, BD, Franklin Lakes, NJ, USA). The cell cycle distributions were calculated using CellQuest software 5.1 (Becton Dickinson).

MCF-10A cells = experiment: MTT cytotoxicity towards non-tumorigenic breast cells; format: cell-based, human; conditions: for IC50: read-out: IC50 MCF-10A
MDA-MB-231 cells [5] = experiment: Annexin V-FITC/PI apoptosis assay, MDA-MB-231; format: cell-based, human; conditions: MDA-MB-231, treated at IC50, 48 h; for Annexin V+ cells, late apoptotic phase (upper right quadrant): control 0.24%; for Annexin V+ cells, early apoptotic phase (lower right quadrant): control 0.56%
Experimental: as §5, §6, §7, §8

MDA-MB-231 cells [6] = experiment: Cell cycle analysis by flow cytometry, MDA-MB-231; format: cell-based, human; conditions: MDA-MB-231, treated at IC50, 24 h, vs untreated control
Excerpt: as §9, §2, §3
The anti-proliferative activity of the tested pyridazines 11a-r was measured in vitro using the Sulfo-Rhodamine-B stain (SRB) assay. Briefly, Cells were inoculated in 96-well microtiter plate (5X104 cells/ well) for 24 h before treatment with the tested pyridazines to allow attachment of cell to the wall of the plate. Tested pyridazines were dissolved in DMSO at 1 mg/ml immediately before use and diluted to the appropriate volume just before addition to the cell culture. Different concentrations of tested pyridazines and staurosporine were added to the cells (three wells were prepared for each individual dose). Cells were incubated with the pyridazines for 48 h at 37°C and in atmosphere of 5% CO2. After 48 h cells were fixed, washed, and stained for 30 min with 0.4% (w/v) SRB dissolved in 1% acetic acid. Unbound dye was removed by four washes with 1% acetic acid, and attached stain was recovered with Tris-EDTA buffer. Color intensity was measured in an ELISA reader. The relation between percent of surviving fraction and drug concentration is plotted to get the survival curve for each cell line. The concentration required for 50% inhibition of cell viability (IC50) was calculated.
Breast cancer T-47D and MDA-MB-231 cells were treated with pyridazines 11l and 11m for 24 h (at their IC50 concentration), and then cells were washed twice with ice-cold phosphate buffered saline (PBS). […]

VEGFR-2 = system: VEGFR-2; set-up: method as in PMID 31852269; conditions: in words; cited from earlier work
[7] = system: human colon cancer HT-29 cell line; set-up: method as in PMID 23307426; conditions: in words; cited from earlier work
[8] = SRB assay, breast cancer T-47D, mean ± SD of three experiments
[9] = SRB assay, 48 h, breast cancer MDA-MB-231, mean ± SD of three experiments

Structure (SMILES): CC(C)(C)NC(=O)c1cc(C(F)(F)F)c(NCc2ccccc2C(F)(F)F)nn1 [11h]
IC50 (CDK2/CyclinA2): 43.8 ± 1.79 nM | IC50 (MDA-MB-231 cells [2]; [9]): 2440 ± 80 nM | IC50 (T-47D cells [1]; [8]): 1600 ± 50 nM | melting point: 132 to 133 °C

Structure (SMILES): COc1ccc(Nc2ccc(NC(=O)Nc3ccc(Cl)c(C(F)(F)F)c3)cc2)nn1 [IV]
IC50 VEGFR-2 (VEGFR-2): nanomolar range

Structure (SMILES): CCOC(=O)c1ccc(-c2ccc(N(C)C)nn2)cc1 [III]
Cytotoxic activity towards HT-29 [7]: excellent cytotoxic activity

Structure (SMILES): CC(C)(C)NC(=O)c1cc(C(F)(F)F)c(N2CCOCC2)nn1 [11g]
melting point: 121 to 122 °C

Structure (SMILES): O=C(NCC1CCOCC1)c1cc(C(F)(F)F)c(N2CCOCC2)nn1 [11m]
Increase in Annexin V+ apoptotic cells (UR + LR) with respect to untreated control (T-47D cells [3]): ~21 fold | Annexin V+ cells, late apoptotic phase (upper right quadrant) (T-47D cells [3]): 10.34% | Annexin V+ cells, early apoptotic phase (lower right quadrant) (T-47D cells [3]): 11.36% | Increase in sub-G1 phase (T-47D cells [4]): 9.5 fold | Rise in cell population of G2/M phase (T-47D cells [4]): 2.5 fold | IC50 (MCF-10A cells; Homo sapiens, MCF-10A): 11400 ± 220 nM | IC50 (MDA-MB-231 cells [2]; MDA-MB-231, 48 h): 990 ± 30 nM | Annexin V+ cells, late apoptotic phase (upper right quadrant) (MDA-MB-231 cells [5]): 15.56% | Annexin V+ cells, early apoptotic phase (lower right quadrant) (MDA-MB-231 cells [5]): 8.19% | IC50 (T-47D cells [1]): 430 ± 10 nM | Increase in cell population of G2/M phase (MDA-MB-231 cells [6]): 3.8 fold | Increase in sub-G1 phase (MDA-MB-231 cells [6]): 15.2 fold

The next lines start with results.

IC50 (T-47D cells [1]; [8]): 1940 ± 60 nM | melting point: 62 to 63 °C
Structure (SMILES): CC(C)(C)NC(=O)c1cc(C(F)(F)F)c(NC2CCCC2)nn1 [11f]

IC50 (T-47D cells [1]; [8]): 1370 ± 40 nM | melting point: 110 to 111 °C
Structure (SMILES): CCCCNc1nnc(C(=O)NC2C3CC4CC(C3)CC2C4)cc1C(F)(F)F (stereo not shown) [11b]

IC50 (CDK2/CyclinA2): 151 ± 6.16 nM | IC50 (T-47D cells [1]; [8]): 2620 ± 80 nM
Structure (SMILES): O=C(NC1C2CC3CC(C2)CC1C3)c1cc(C(F)(F)F)c(NCc2ccccc2C(F)(F)F)nn1 (stereo not shown) [11e]

IC50 (CDK2/CyclinA2): 55.6 ± 2.27 nM | IC50 (MDA-MB-231 cells [2]; [9]): 1300 ± 40 nM | IC50 (T-47D cells [1]; [8]): 1570 ± 50 nM
Structure (SMILES): O=C(NCC1CCOCC1)c1cc(C(F)(F)F)c(NCC2CC2)nn1 [11l]
Increase in Annexin V+ apoptotic cells (UR + LR) with respect to untreated control (T-47D cells [3]): about 33 fold | Annexin V+ cells, late apoptotic phase (upper right quadrant) (T-47D cells [3]): 27.2% | Annexin V+ cells, early apoptotic phase (lower right quadrant) (T-47D cells [3]): 6.39% | Increase in sub-G1 phase (T-47D cells [4]): 13.8 fold | Rise in cell population of G2/M phase (T-47D cells [4]): 2.7 fold | Mean tumour selectivity index (S. I.) (MCF-10A cells; IC50 for MCF-10A / IC50 average for (T-47D and MDA-MB-231)): 13.7 | IC50 (MCF-10A cells; MTT assay, non-tumorigenic human breast MCF-10A cells): 19600 ± 380 nM | Annexin V+ cells, late apoptotic phase (upper right quadrant) (MDA-MB-231 cells [5]): 23.60% | Annexin V+ cells, early apoptotic phase (lower right quadrant) (MDA-MB-231 cells [5]): 3.38% | Increase in cell population of G2/M phase (MDA-MB-231 cells [6]): 4.1 fold | Increase in sub-G1 phase (MDA-MB-231 cells [6]): 18.9 fold

IC50 (MDA-MB-231 cells [2]; [9]): 2940 ± 90 nM
Structure (SMILES): O=C(NCc1ccccc1C(F)(F)F)c1cc(C(F)(F)F)c(NCCO)nn1 [11n]

IC50 (MDA-MB-231 cells [2]; [9]): 2180 ± 70 nM | melting point: 177 to 178 °C
Structure (SMILES): O=C(NC1C2CC3CC(C2)CC1C3)c1cc(C(F)(F)F)c(N2CCOCC2)nn1 (stereo not shown) [11d]

IC50 (T-47D cells [1]; [8]): 440 ± 10 nM
Structure (SMILES): CCCCNC(=O)c1cc(C(F)(F)F)c(N2CCOCC2)nn1 [11i]
